Test results reported in article PMC9776381, “A Large-Scale High-Throughput Screen for Modulators of SERCA Activity” (Biomolecules, 2022).
Entries after “also recorded” stand apart in the source; their conditions may differ.

How the values were obtained:
[1] = molecular target: T1, SERCA1a (rabbit light skeletal SR vesicles) (Oryctolagus cuniculus, UniProt P04191); assay: NADH-coupled Ca-ATPase activity assay, skeletal SR (CRC at pCa 5.4); format: biochemical; conditions: n = 3; for Skeletal SR ATPase Activity Percent Increase: maximal effect of CRC 0.05 to 50 µM, pCa 5.4, relative to DMSO, mean ± SD; for EC50: pCa 5.4, mean ± SD
T1 construct: rabbit muscles were freshly harvested from the back and hind leg of New Zealand White rabbits and purified using a sucrose gradient; from tissue; host or cells: rabbit (New Zealand White) back and hind leg skeletal muscle, light SR vesicles
Procedure: (§1) For skeletal SR, rabbit muscles were freshly harvested from the back and hind leg of New Zealand White rabbits and purified using a sucrose gradient. The resulting light skeletal SR contains 80% SERCA, as a proportion of total protein content. Cardiac SR vesicles were isolated from fresh porcine left ventricular tissue.
(§2) Functional assays were performed using rabbit light skeletal sarcoplasmic (SR) vesicles. For high-throughput NADH-coupled screening, assay mix containing a final concentration of 50 mM MOPS (pH 7.0), 100 mM KCl, 1 mM EGTA, 0.2 mM NADH, 1 mM phosphoenol pyruvate, 10 IU/mL of pyruvate kinase, 10 IU/mL of lactate dehydrogenase, 1 µM of the calcium ionophore A23187, 4 µg/mL skeletal SR, and added CaCl2 to obtain pCa 5.4 was dispensed into 384-well DIVERSet assay plates containing 50 nL of compound or DMSO using a FlexDrop Precision liquid dispenser (Perkin Elmer, Waltham, Massachusetts). Plates were sealed, covered from light, and incubated at room temperature for 20 min. The assay was then started by dispensing MgATP (termed “initiation mix”), to a final concentration of 5 mM in each well (80 µL total assay volume) with the FlexDrop liquid dispenser (Perkin Elmer). The time dependence of absorbance was measured at 340 nm in a SpectraMax Plus384 microplate spectrophotometer (Molecular Devices, Sunnyvale, CA). For follow-up concentration response curves of Hit compounds, 400 nL of either compound or DMSO was dispensed into each well using an Echo liquid dispenser (Beckman Coulter). Testing dose-dependent compound effects on rabbit skeletal SR vesicles was done using the same method, as described above in 384-well plates. Determining compound effects on cardiac SR vesicles was done in a similar method as above, with the exception of 10 µg/mL of cardiac SR incubated in assay mix consisting of a final concentration of 50 mM MOPS (pH 7.0), 100 mM KCl, 1 mM EGTA, 1 µM of the calcium ionophore A23187, and added CaCl2 to the desired free calcium values. After a 20 min incubation, the “initiation mix”, containing a final concentration of 0.2 mM NADH, 1 mM phosphoenol pyruvate, 10 IU/mL of pyruvate kinase, 10 IU/mL of lactate dehydrogenase, and 5mM MgATP, was dispensed into each well.
The initial screen assay was performed with compounds at 10 µM. To better study the selected Hit compounds for their activation potential, we performed ATPase analyses (in triplicate) over a range of Hit concentrations (0.05 to 50 µM), generating concentration-response curves (CRCs) to determine maximal effects and EC50 (Figure 2). We used the same Ca^2+ concentration (pCa 5.4) as in the screening assays, thus focusing on the effects on the maximal velocity of SERCA. Two of the selected Hits yielded no response in follow-up assays, probably due to a mismatch in chemical composition between the library compound and the subsequently ordered compound (DS95401435 and DS41547941). This type of discrepancy is a typical hurdle in the screening process. Each of the other 19 compounds produced a substantial increase in ATPase activity, ranging from 30% to 72% (Table 1 and Supporting Information, Figure S1), as expected due to similarity of the CRC assay to the initial screen.

[2] = molecular target: T2, SERCA1a (skeletal SR vesicles) (Oryctolagus cuniculus, UniProt P04191); assay: Oxalate-supported Ca2+-uptake assay, skeletal SR (CRC at pCa 5.4); format: biochemical, rabbit; conditions: for Skeletal SR Ca^2+ Uptake Activity Percent Increase: maximal effect of CRC; for Skeletal SR Ca^2+ Uptake Activity Percent Increase / EC50: pCa 5.4, mean ± SD, dash = no observable effect; for EC50: read-out: Skeletal SR Ca^2+ Uptake Activity EC50
T2 construct: rabbit muscles were freshly harvested from the back and hind leg of New Zealand White rabbits and purified using a sucrose gradient; from tissue; host or cells: rabbit (New Zealand White) back and hind leg skeletal muscle, light SR vesicles
Procedure: as §1
(§3) To determine compound effect on the Ca^2+-uptake activity of SERCA1a and SERCA2a, we used an oxalate-supported assay. A solution containing 50 mM MOPS (pH 7.0), 100 mM KCl, 30 mg/mL sucrose, 1 mM EGTA, 10 mM potassium oxalate, 2 µM Fluo-4, 30 µg/mL cardiac SR vesicles or 12 μg/mL skeletal SR vesicles, and CaCl2 calculated to reach the desired free [Ca^2+] was dispensed into 384-well black walled, transparent bottomed plates (Greiner Bio-One) containing the tested small molecule and incubated at 21 °C for 20 min while covered and protected from light. To start the reaction, MgATP was added to a final concentration of 5 mM, and the decrease in 485-nm excited fluorescence was monitored at 520 nm for 15 min using a FLIPR Tetra (Molecular Devices, San Jose, CA, USA).
While Ca^2+-dependent ATPase activity is a direct measure of SERCA activity, coupling of ATP hydrolysis to transport of Ca^2+ across the SR membrane is essential for the role of SERCA in cellular physiology. Therefore, we next asked whether our ATPase-based HTS assay could successfully identify compounds that also increase Ca^2+ uptake of SERCA.

[3] = molecular target: T3, SERCA2a (cardiac SR vesicles) (Sus scrofa, UniProt P11607); assay: NADH-coupled Ca-ATPase activity assay, cardiac SR (CRC at pCa 5.4); format: biochemical, porcine; conditions: pCa 5.4, mean ± SD, n = 3; for Cardiac SR ATPase Activity Percent Increase: maximal effect of CRC
T3 construct: Cardiac SR vesicles were isolated from fresh porcine left ventricular tissue; from tissue; host or cells: porcine left ventricular tissue, cardiac SR vesicles
Procedure: as §1, §2
While initial screening was performed in skeletal SR enriched with the SERCA1a isoform, high sequence and structural homology with the cardiac SERCA2a isoform predicts a potential for cross reactivity of the Hit compounds. To test this hypothesis, we performed ATPase analyses with cardiac SR microsomes, which are enriched for SERCA2a.

[4] = molecular target: T3, SERCA2a (cardiac SR vesicles); assay: Oxalate-supported Ca2+-uptake assay, cardiac SR (CRC at pCa 5.4); format: biochemical, porcine; conditions: for Cardiac SR Ca^2+ Uptake Activity Percent Increase: maximal effect of CRC; for Cardiac SR Ca^2+ Uptake Activity Percent Increase / EC50: pCa 5.4, mean ± SD, dash = no observable effect; for Cardiac SR Ca^2+ Uptake Activity Percent Increase / EC50 / Compound classification from ATPase vs. Ca^2+ uptake CRCs, cardiac SR: n = 3; for EC50: read-out: Cardiac SR Ca^2+ Uptake Activity EC50
Procedure: as §1, §3
To determine whether the observed increases in SERCA2a ATPase activity translate to Ca^2+ uptake function, we applied our Ca^2+ transport assay to test our selected Hit compounds in cardiac SR (Table 1). Indeed, 16 of the 19 compounds yielded a clear increase in Ca^2+ uptake activity. In fact, eight compounds generated an increase at least 50% greater in cardiac SR than in skeletal SR. Three compounds had either an inhibitory or no effect on Ca^2+ transport, and two of these were also non-activating compounds in skeletal SR.

T1 sequence (P04191 1-994 isoform P04191-2): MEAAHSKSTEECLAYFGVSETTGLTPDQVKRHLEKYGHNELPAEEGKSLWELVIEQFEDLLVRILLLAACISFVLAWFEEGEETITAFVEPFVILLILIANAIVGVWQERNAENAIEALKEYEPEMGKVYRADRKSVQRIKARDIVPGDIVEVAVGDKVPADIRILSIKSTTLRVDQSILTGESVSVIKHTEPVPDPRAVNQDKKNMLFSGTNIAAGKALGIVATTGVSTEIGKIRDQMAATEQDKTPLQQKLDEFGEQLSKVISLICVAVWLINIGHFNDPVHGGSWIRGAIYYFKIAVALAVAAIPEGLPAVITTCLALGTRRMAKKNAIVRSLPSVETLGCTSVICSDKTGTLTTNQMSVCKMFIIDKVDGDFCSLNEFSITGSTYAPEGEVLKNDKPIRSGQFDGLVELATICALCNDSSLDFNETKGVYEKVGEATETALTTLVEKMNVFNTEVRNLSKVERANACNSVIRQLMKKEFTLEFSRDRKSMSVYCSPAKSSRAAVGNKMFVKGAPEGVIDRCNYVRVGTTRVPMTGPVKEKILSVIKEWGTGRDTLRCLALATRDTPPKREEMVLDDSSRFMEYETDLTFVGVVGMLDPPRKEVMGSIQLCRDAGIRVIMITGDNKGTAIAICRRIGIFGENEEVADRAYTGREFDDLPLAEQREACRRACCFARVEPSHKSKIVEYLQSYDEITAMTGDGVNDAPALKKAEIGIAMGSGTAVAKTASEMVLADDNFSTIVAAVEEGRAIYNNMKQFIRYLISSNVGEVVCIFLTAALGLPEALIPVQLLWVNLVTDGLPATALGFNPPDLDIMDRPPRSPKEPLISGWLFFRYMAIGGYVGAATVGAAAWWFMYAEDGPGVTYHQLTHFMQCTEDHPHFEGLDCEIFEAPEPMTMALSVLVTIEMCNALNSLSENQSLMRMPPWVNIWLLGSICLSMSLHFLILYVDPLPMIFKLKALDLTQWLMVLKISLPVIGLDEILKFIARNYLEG
T2 sequence (P04191 1-994 isoform P04191-2): as above
T3 sequence (P11607 1-997 isoform P11607-2): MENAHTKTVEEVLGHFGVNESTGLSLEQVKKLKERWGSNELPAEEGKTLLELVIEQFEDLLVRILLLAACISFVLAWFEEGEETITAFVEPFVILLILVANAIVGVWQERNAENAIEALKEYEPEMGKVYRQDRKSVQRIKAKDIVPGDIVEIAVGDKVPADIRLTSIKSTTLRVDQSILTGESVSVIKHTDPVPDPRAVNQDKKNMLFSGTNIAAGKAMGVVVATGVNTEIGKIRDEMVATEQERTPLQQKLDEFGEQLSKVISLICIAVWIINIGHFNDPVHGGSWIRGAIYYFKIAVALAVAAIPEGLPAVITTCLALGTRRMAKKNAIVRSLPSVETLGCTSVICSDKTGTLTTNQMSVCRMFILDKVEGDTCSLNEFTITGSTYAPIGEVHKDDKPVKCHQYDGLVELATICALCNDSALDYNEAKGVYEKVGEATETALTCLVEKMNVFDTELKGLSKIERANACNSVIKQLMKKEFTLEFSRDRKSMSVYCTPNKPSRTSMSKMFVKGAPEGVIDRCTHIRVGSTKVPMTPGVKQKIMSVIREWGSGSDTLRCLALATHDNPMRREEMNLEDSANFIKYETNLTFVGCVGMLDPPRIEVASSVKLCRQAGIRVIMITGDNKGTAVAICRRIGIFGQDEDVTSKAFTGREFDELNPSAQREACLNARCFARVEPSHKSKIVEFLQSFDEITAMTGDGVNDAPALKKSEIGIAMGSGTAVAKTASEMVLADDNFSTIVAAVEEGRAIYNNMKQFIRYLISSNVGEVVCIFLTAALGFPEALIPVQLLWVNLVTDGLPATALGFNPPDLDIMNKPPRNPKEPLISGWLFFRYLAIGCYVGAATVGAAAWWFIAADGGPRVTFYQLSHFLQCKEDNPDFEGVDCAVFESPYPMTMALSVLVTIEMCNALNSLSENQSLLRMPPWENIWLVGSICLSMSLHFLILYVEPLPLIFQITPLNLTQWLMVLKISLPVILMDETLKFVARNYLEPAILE

SMILES	Skeletal SR ATPase Activity Percent Increase [1]	EC50 [1]	Skeletal SR Ca^2+ Uptake Activity Percent Increase ([2]; n = 3)	EC50 ([2]; n = 3)	Cardiac SR ATPase Activity Percent Increase [3]	EC50 [3]	Cardiac SR Ca^2+ Uptake Activity Percent Increase [4]	EC50 [4]	Compound classification from ATPase vs. Ca^2+ uptake CRCs, cardiac SR ([4]; cardiac SR)	Compound classification from ATPase vs. Ca^2+ uptake CRCs, skeletal SR ([2]; skeletal SR, n = 3)	Effect on Ca^2+ uptake activity in skeletal SR (in words) ([2]; skeletal SR, pCa 5.4)	Effect on Ca^2+ uptake activity in cardiac SR (in words) ([4]; cardiac SR, pCa 5.4)	Ca^2+ uptake effect (in words), SR type not given ([2]; uncoupling compounds, cluster 5, tissue not stated)
CCC(C)N(Cc1ccc(C)cc1)Cc1nccs1 (stereo not drawn) [Compound 1]	50 ± 25%	40 ± 21 µM	27 ± 3%	28 ± 9 µM	42 ± 12%	31 ± 10 µM	32 ± 2%	37 ± 4 µM	–	–	–	–	–
COc1ncc(CN(Cc2sccc2C)CC(C)C)cn1 [Compound 2]	36 ± 2%	4 ± 0.5 µM	15 ± 1%	2.2 ± 0.4 µM	33 ± 3%	2.9 ± 0.6 µM	12 ± 1%	1.2 ± 0.2 µM	–	–	–	–	–
CCCSCC(=O)N(Cc1ccc(C)s1)C1CCCC1 [Compound 3]	54 ± 2%	7.3 ± 0.5 µM	20 ± 1%	3.4 ± 0.5 µM	48 ± 4%	6.7 ± 1 µM	37 ± 3%	3.5 ± 0.7 µM	Improved Coupling Compounds	–	–	–	–
CCCN(Cc1ccccc1OC)C(=O)c1cc(C)c(C)s1 [Compound 4]	53 ± 2%	5.4 ± 0.4 µM	14 ± 2%	1.4 ± 0.5 µM	58 ± 4%	4.8 ± 0.6 µM	24 ± 1%	1.6 ± 0.3 µM	–	–	–	–	–
C=CCN(Cc1ccccc1OCC)C(=O)C1CCC1 [Compound 5]	41 ± 3%	9 ± 1 µM	10 ± 1%	1.4 ± 0.6 µM	58 ± 6%	7.7 ± 2 µM	16 ± 3%	1 ± 0.7 µM	–	–	–	–	–
CCCCN(Cc1ccsc1)C(=O)c1occc1C [Compound 6]	45 ± 8%	24 ± 6 µM	9 ± 1%	4 ± 1 µM	63 ± 17%	29 ± 12 µM	17 ± 1%	3.8 ± 0.6 µM	–	–	–	–	–
CCOC(=O)C1(CCCc2ccccc2)CCN(C(=O)CC2=CCCCC2)CC1 [Compound 7]	41 ± 3%	3.6 ± 0.4 µM	14 ± 2%	1.4 ± 0.4 µM	51 ± 3%	2.9 ± 0.3 µM	24 ± 3%	1.3 ± 0.4 µM	Linked Activating Compounds	–	–	–	–
CCOC(=O)C1(Cc2cccc(C(F)(F)F)c2)CCN(C(=O)c2sccc2C)CC1 [Compound 8]	45 ± 2%	4 ± 0.4 µM	13 ± 1%	1.3 ± 0.4 µM	43 ± 2%	3.4 ± 0.3 µM	18 ± 2%	0.8 ± 0.3 µM	–	Improved Coupling Compounds	–	–	–
CCOC(=O)C1(CCc2ccccc2)CCN(C(=O)c2occc2C)CC1 [Compound 9]	72 ± 2%	13.3 ± 0.7 µM	31 ± 7%	8 ± 5 µM	85 ± 5%	11 ± 1 µM	33 ± 3%	4 ± 0.8 µM	Linked Activating Compounds	–	–	–	–
Cc1ccc(CN(C)C(=O)CC(c2ccccc2)c2ccc3c(c2)OCO3)o1 (stereo not drawn) [Compound 10]	57 ± 3%	10 ± 1 µM	11 ± 3%	4 ± 2 µM	55 ± 2%	7.5 ± 0.4 µM	16 ± 3%	1.6 ± 0.7 µM	–	–	–	–	–
Cc1ccsc1CN(C)C(=O)CC(c1ccccc1)c1ccc2c(c1)OCO2 (stereo not drawn) [Compound 11]	61 ± 2%	7.2 ± 0.4 µM	9.1 ± 0.8%	1.2 ± 0.3 µM	62 ± 2%	6.4 ± 0.4 µM	18 ± 2%	1.2 ± 0.4 µM	–	–	–	–	–
Fc1ccc(N2CCCN(Cc3nc(C(c4ccccc4)c4ccccc4)no3)CC2)cc1 [Compound 12]	41 ± 2%	3.4 ± 0.4 µM	6.5 ± 0.5%	0.6 ± 0.2 µM	29 ± 1%	2.3 ± 0.3 µM	−10 ± 3%	1.3 ± 0.1 µM	Isoform-specific uncoupler	–	significant activation; also recorded: small but significant increase	strong uncoupling effect; also recorded: inhibition of Ca^2+ uptake activity	–
CCc1cccc(NC(=O)CCC(=O)NCc2snnc2C)c1 [Compound 17]	42 ± 4%	16 ± 3 µM	–	–	62 ± 5%	9.4 ± 1 µM	–	–	–	–	–	–	little to no Ca^2+ uptake effect
